Test results: patent US6042841A, “Cosmetic method of treating skin” (Unilever Home & Personal Care USA Division of Conopco, Inc., priority 1998, dated 2000)

Legend:
Type in all cases: cell-based
[1] = system: procollagen-I; assay: Dot blot assay for procollagen-I synthesis in human dermal fibroblasts
Description: (§1) Primary human foreskin fibroblasts at passage 2 (P2) were seeded into 12-well plates at 10000 cells/cm^2 and maintained for 24 hours in an atmosphere of 5% carbon dioxide and 4% oxygen in Dulbeccos Modified Eagles Medium (DMEM) supplemented with 10% foetal calf serum. After this time the cells were washed with serum free DMEM and then incubated in fresh serum free DMEM for a further 60 hours. The fibroblast monolayers were then washed again with serum free DMEM. Test reagents and vehicle controls were added to the cells in triplicate in a final volume of 0.4 ml/well fresh serum free DMEM and incubated for a further 24 hours. This fibroblast conditioned medium was either analysed immediately or snap frozen in liquid nitrogen and stored at -70° C. for future analysis. The cells were then counted and data from the dot-blot analysis subsequently standardised to cell number.
Samples of conditioned medium from dermal fibroblasts treated with vehicle (as a control) or test reagents were supplemented with 20 mM dithiothreitol (1:10 dilution of 200 mM stock solution) and 0.1% sodium dodecylsulphate (1:100 dilution of 10% stock solution), mixed well and then incubated at 75° C. for 2 minutes. […]
In order to normalise the results the effects of the test substance was determined relative to a vehicle treated control value of 100 arbitrary units. […]

[2] = system: keratinocytes; assay: Keratinocyte SDS viability assay (Neutral Red); details: vs 2 μg/ml SDS alone; 1 way ANOVA, p<0.05
Description: After incubating for 24 hours the medium was removed and the viability determined by the Neutral Red method.

[3] = system: PGE2; assay: Keratinocyte PGE2 assay (basal release); details: 0.1 and 1 μM; 1 way ANOVA, p<0.05
Description: This was then replaced with KGM without hydrocortisone for 24-48 hours. No petroselinic acid was added to the control cells. […] At the end of the incubation the medium was harvested and assayed for the basal release of the pro-inflammatory PGE2 by enzyme-linked immuno assay using a commercial PGE2 kit (Amersham, Buckinghamshire, England).
The anti-inflammatory potential of the test compounds were assessed by the ability of the compounds to reduce the basal levels of secreted PGE2 as compared to the control. […]

[4] = system: decorin; assay: Dot blot assay for decorin synthesis in human dermal fibroblasts
Description: as §1
Samples of conditioned medium from dermal fibroblasts treated with vehicle (as a control) or test reagents were supplemented with 20 mM dithiothreitol (1:10 dilution of 200 mM stock solution) and 0.1% sodium dodecylsulphate (1:100 dilution of 10% stock solution), mixed well and then incubated at 75° C. for 2 minutes. A standard for the assay was generated by serial dilution of neat fibroblast conditioned medium from fibroblasts seeded at 10000 cells/cm^2 in a 175 cm^2 flask and maintained in serum free DMEM as described above. Assay samples were subsequently applied in triplicate to a prewetted sheet of Immobilon-P transfer membrane using the 96-well Bio-Dot Apparatus from Bio-Rad as described in the manufacturers guidelines. Approximately 200 μl of medium was applied per well. […] Dot intensity was assessed by computer-assisted image analysis using the quantification tools in ImageQuant™, standardised to cell number and the effects of various test reagents on decorin and procollagen-I synthesis were determined relative to a vehicle treated control value of 100 arbitrary units.

## CCCCCCCCCCC/C=C\CCCCC(=O)O [Petroselinic Acid, petroselinic acid]
[1]; Homo sapiens, Fibroblast, 10 μM, 24 hours, n = 3, read-out: Procollagen-I synthesis relative to vehicle treated control value of 100
  activity at 10 µM: 118 ± 8.6%
[1]; compared to the control
  procollagen-I synthesis (in words): significantly upregulates
[2]
  Keratinocyte viability vs SDS alone (in words): significantly increased viability
[3]
  release of PGE2 from unstimulated keratinocytes (in words): significantly (p<0.05) reduced
[4]; compared to the control
  decorin synthesis (in words): significantly upregulates
[4]; petroselinic acid 10 μM vs retinoic acid 1 μm (so in the source)
  magnitude of upregulation of decorin synthesis vs retinoic acid (in words): exceeds that of the bench-mark anti-aging dermal repair active, retinoic acid
